# Test results: ChEMBL document CHEMBL1201862, “PubChem BioAssay data set” (2004)
#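 Cultured in 96-well plates, cells were exposed to test compound for 48 hours across five concentrations. The concentration for 50% growth inhibition is given as GI50.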 The source made the active and inactive calls. Cut-off read from the data, not from the text of the source: active = GI50 up to about 1.1 µM and inactive = higher.
# How the values were obtained:
# Test in all cases: DTP human tumour cell line panel, 48 h
# NCI-H23 = tested on: NCI-H23
# OVCAR-5 = tested on: OVCAR-5
# IGROV-1 = tested on: IGROV-1
# HCT-116 = tested on: HCT-116
# M14 = tested on: M14
# Hs-578T = tested on: Hs-578T
# MOLT-4 = tested on: MOLT-4
# K562 = tested on: K562
# A549 = tested on: A549
# LOX IMVI = tested on: LOX IMVI
# SK-MEL-2 = tested on: SK-MEL-2
# EKVX = tested on: EKVX
# U-251 = tested on: U-251
# TK-10 = tested on: TK-10
# HCT-15 = tested on: HCT-15
# OVCAR-4 = tested on: OVCAR-4
# NCI/ADR-RES = tested on: NCI/ADR-RES
# SNB-75 = tested on: SNB-75
# NCI-H226 = tested on: NCI-H226
# UACC-62 = tested on: UACC-62
# HCC 2998 = tested on: HCC 2998
# SR = tested on: SR
# CCRF-CEM = tested on: CCRF-CEM
# A498 = tested on: A498
# MDA-MB-231 = tested on: MDA-MB-231
# SF-295 = tested on: SF-295
# UO-31 = tested on: UO-31
# HT-29 = tested on: HT-29
# SF-268 = tested on: SF-268
# ACHN = tested on: ACHN
# MDA-N = tested on: MDA-N
# SK-MEL-5 = tested on: SK-MEL-5
# SK-MEL-28 = tested on: SK-MEL-28
# SNB-19 = tested on: SNB-19
# SW-620 = tested on: SW-620
# NCI-H522 = tested on: NCI-H522
# DU-145 = tested on: DU-145
# OVCAR-3 = tested on: OVCAR-3
# SN12C = tested on: SN12C
# OVCAR-8 = tested on: OVCAR-8
# T47D = tested on: T47D
# SF-539 = tested on: SF-539
# RPMI-8226 = tested on: RPMI-8226
# CAKI-1 = tested on: CAKI-1
# HOP-62 = tested on: HOP-62
# SK-OV-3 = tested on: SK-OV-3
# COLO 205 = tested on: COLO 205
# MCF7 = tested on: MCF7
# UACC-257 = tested on: UACC-257
# RXF 393 = tested on: RXF 393
# MDA-MB-435 = tested on: MDA-MB-435
# 786-0 = tested on: 786-0
# PC-3 = tested on: PC-3
# Malme-3M = tested on: Malme-3M
# HL-60 = tested on: HL-60
# NCI-H460 = tested on: NCI-H460
# KM12 = tested on: KM12
# HOP-92 = tested on: HOP-92
smiles,measurement,setting,value
CN(C)/C=N/NC(=O)/C(C#N)=C/N(C)C,GI50,NCI-H23,> 100 µM (inactive)
same,GI50,OVCAR-5,> 100 µM (inactive)
same,GI50,IGROV-1,> 100 µM (inactive)
same,GI50,HCT-116,> 100 µM (inactive)
same,GI50,M14,> 100 µM (inactive)
same,GI50,Hs-578T,> 100 µM (inactive)
same,GI50,MOLT-4,> 100 µM (inactive)
same,GI50,K562,> 100 µM (inactive)
same,GI50,A549,> 100 µM (inactive)
same,GI50,LOX IMVI,> 100 µM (inactive)
same,GI50,SK-MEL-2,> 100 µM (inactive)
same,GI50,EKVX,> 100 µM (inactive)
same,GI50,U-251,> 100 µM (inactive)
same,GI50,TK-10,> 100 µM (inactive)
same,GI50,HCT-15,> 100 µM
same,GI50,OVCAR-4,> 100 µM (inactive)
same,GI50,NCI/ADR-RES,> 100 µM (inactive)
same,GI50,SNB-75,> 100 µM (inactive)
same,GI50,NCI-H226,> 100 µM (inactive)
same,GI50,UACC-62,> 100 µM (inactive)
same,GI50,HCC 2998,> 100 µM (inactive)
same,GI50,SR,> 100 µM (inactive)
same,GI50,CCRF-CEM,> 100 µM (inactive)
same,GI50,A498,> 100 µM (inactive)
same,GI50,MDA-MB-231,> 100 µM (inactive)
same,GI50,SF-295,> 100 µM (inactive)
same,GI50,UO-31,> 100 µM (inactive)
same,GI50,HT-29,> 100 µM (inactive)
same,GI50,SF-268,> 100 µM (inactive)
same,GI50,ACHN,> 100 µM (inactive)
same,GI50,MDA-N,> 100 µM (inactive)
same,GI50,SK-MEL-5,> 100 µM (inactive)
same,GI50,SK-MEL-28,> 100 µM (inactive)
same,GI50,SNB-19,> 100 µM (inactive)
same,GI50,SW-620,> 100 µM (inactive)
same,GI50,NCI-H522,> 100 µM (inactive)
same,GI50,DU-145,> 100 µM (inactive)
same,GI50,OVCAR-3,> 100 µM (inactive)
same,GI50,SN12C,> 100 µM (inactive)
same,GI50,OVCAR-8,> 100 µM (inactive)
same,GI50,T47D,> 100 µM (inactive)
same,GI50,SF-539,64.7 µM (inactive)
same,GI50,RPMI-8226,> 100 µM (inactive)
same,GI50,CAKI-1,> 100 µM (inactive)
same,GI50,HOP-62,> 100 µM (inactive)
same,GI50,SK-OV-3,> 100 µM (inactive)
same,GI50,COLO 205,> 100 µM (inactive)
same,GI50,MCF7,> 100 µM (inactive)
same,GI50,UACC-257,> 100 µM (inactive)
same,GI50,RXF 393,> 100 µM (inactive)
same,GI50,MDA-MB-435,> 100 µM (inactive)
same,GI50,786-0,> 100 µM (inactive)
same,GI50,PC-3,> 100 µM (inactive)
same,GI50,Malme-3M,75.3 µM (inactive)
same,GI50,HL-60,> 100 µM (inactive)
same,GI50,NCI-H460,> 100 µM (inactive)
same,GI50,KM12,> 100 µM (inactive)
CC1(C)COC(c2cccc(C(O)c3ccc(Cl)cc3)c2)=N1 (stereo unspecified),GI50,NCI-H23,23.9 µM (inactive)
same,GI50,OVCAR-5,17.9 µM (inactive)
same,GI50,IGROV-1,30.5 µM (inactive)
same,GI50,HCT-116,18.1 µM (inactive)
same,GI50,M14,19.9 µM (inactive)
same,GI50,Hs-578T,23.4 µM (inactive)
same,GI50,MOLT-4,12.1 µM (inactive)
same,GI50,K562,23.4 µM (inactive)
same,GI50,A549,> 10 µM (inactive)
same,GI50,LOX IMVI,15 µM (inactive)
same,GI50,SK-MEL-2,24.2 µM (inactive)
same,GI50,EKVX,35.4 µM (inactive)
same,GI50,U-251,22.6 µM (inactive)
same,GI50,TK-10,32.6 µM (inactive)
same,GI50,OVCAR-4,56.8 µM (inactive)
same,GI50,NCI/ADR-RES,33.3 µM (inactive)
same,GI50,HOP-92,24.9 µM (inactive)
same,GI50,SNB-75,2.94 µM (inactive)
same,GI50,NCI-H226,14.8 µM (inactive)
same,GI50,UACC-62,19 µM (inactive)
same,GI50,HCC 2998,23.8 µM (inactive)
same,GI50,SR,31.3 µM (inactive)
same,GI50,CCRF-CEM,19 µM (inactive)
same,GI50,MDA-MB-231,29.9 µM (inactive)
same,GI50,UO-31,17.1 µM (inactive)
same,GI50,HT-29,17.7 µM (inactive)
same,GI50,SF-268,31.1 µM (inactive)
same,GI50,ACHN,33.7 µM (inactive)
same,GI50,MDA-N,24.8 µM (inactive)
same,GI50,SK-MEL-5,14.4 µM (inactive)
same,GI50,SK-MEL-28,29.2 µM (inactive)
same,GI50,SNB-19,32.6 µM (inactive)
same,GI50,SW-620,28.9 µM (inactive)
same,GI50,NCI-H522,31.8 µM (inactive)
same,GI50,DU-145,58.2 µM (inactive)
same,GI50,OVCAR-3,20.1 µM (inactive)
same,GI50,SN12C,26.9 µM (inactive)
same,GI50,OVCAR-8,16.1 µM (inactive)
same,GI50,T47D,36.3 µM (inactive)
same,GI50,SF-539,19.4 µM (inactive)
same,GI50,RPMI-8226,27.2 µM (inactive)
same,GI50,CAKI-1,42.3 µM (inactive)
same,GI50,HOP-62,30.1 µM (inactive)
same,GI50,SK-OV-3,26.4 µM (inactive)
same,GI50,COLO 205,18 µM (inactive)
same,GI50,MCF7,19.6 µM (inactive)
same,GI50,RXF 393,15 µM (inactive)
same,GI50,MDA-MB-435,24.9 µM (inactive)
same,GI50,786-0,23.9 µM (inactive)
same,GI50,PC-3,16.6 µM (inactive)
same,GI50,Malme-3M,25.1 µM (inactive)
same,GI50,HL-60,41 µM (inactive)
same,GI50,NCI-H460,29.4 µM (inactive)
same,GI50,KM12,43.7 µM (inactive)
